Data published in US10167262B2, “Herbicidal substituted 3-arylpyrazoles” (FMC CORPORATION, priority 2014, dated 2019).

Legend:
Assay in all cases: Test E pre-/postemergence greenhouse test, plant response rating 0-100
Type in all cases: in vivo
[1] = test system: Italian ryegrass (Lolium multiflorum); settings: scale 0 to 100; for Ryegrass, Italian plant response rating: Preemergence; for Plant response rating, Ryegrass, Italian: Postemergence
Source text: (§1) Seeds of plant species selected from corn (Zea mays), soybean (Glycine max), velvetleaf (Abutilon theophrasti), lambsquarters (Chenopodium album), wild poinsettia (Euphorbia heterophylla), palmer pigweed (Amaranthus palmeri), waterhemp (common waterhemp, Amaranthus rudis), surinam grass (Brachiaria decumbens), large (Lg) crabgrass (Digitaria sanguinalis), Brazilian crabgrass (Digitaria horizontalis), fall panicum (Panicum dichotomiflorum), giant foxtail (Setaria faberii), green foxtail (Setaria viridis), goosegrass (Eleusine indica), johnsongrass (Sorghum halepense), ragweed (common ragweed, Ambrosia elatior), barnyardgrass (Echinochloa crus-galli), sandbur (southern sandbur, Cenchrus echinatus), arrowleaf sida (Sida rhombifolia), Italian ryegrass (Lolium multiflorum), dayflower (Virginia (VA) dayflower, Commelina virginica), field bindweed (Convolvulus arvensis), morningglory (Ipomoea coccinea), nightshade (eastern black nightshade, Solanum ptycanthum), kochia (Kochia scoparia), yellow nutsedge (Cyperus esculentus), smartweed (ladysthumb smartweed, Polygonum persicaria), cocklebur (common cocklebur, Xanthium strumarium), and hairy beggarticks (Bidens pilosa), were planted into a silt loam soil and treated preemergence with test chemicals formulated in a non-phytotoxic solvent mixture which included a surfactant.
(§2) At the same time, plants from these crop and weed species and also waterhemp_RES1, (ALS & Triazine resistant common waterhemp, Amaranthus rudis), and waterhemp_RES2, (ALS & HPPD resistant common waterhemp, Amaranthus rudis) were planted in pots containing Redi-Earth® planting medium (Scotts Company, 14111 Scottslawn Road, Marysville, Ohio 43041) comprising spaghnum peat moss, vermiculite, wetting agent and starter nutrients were treated with postemergence applications of test chemicals formulated in the same manner. Plants ranged in height from 2 to 18 cm for postemergence treatments (1- to 4-leaf stage).
(§3) Treated plants and controls were maintained in a greenhouse for 14 to 21 days, after which time all species were compared to controls and visually evaluated. Plant response ratings, summarized in Table E, are based on a scale of 0 to 100 where 0 is no effect and 100 is complete control. A dash (-) response means no test result.

[2] = test system: palmer pigweed (Amaranthus palmeri); settings: scale 0 to 100; for Pigweed, Palmer plant response rating: Preemergence
Source text: as §1, §2, §3

[3] = test system: arrowleaf sida (Sida rhombifolia); settings: for Arrowleaf Sida plant response rating: Preemergence
Source text: as §1, §2, §3

[4] = test system: fall panicum (Panicum dichotomiflorum); settings: scale 0 to 100; for Panicum, Fall plant response rating: Preemergence; for Plant response rating, Panicum, Fall: Postemergence
Source text: as §1, §2, §3

[5] = test system: corn (Zea mays); settings: scale 0 to 100; for Corn plant response rating: Preemergence; for Plant response rating, Corn: Postemergence
Source text: as §1, §2, §3

[6] = test system: dayflower (Virginia (VA) dayflower, Commelina virginica); settings: scale 0 to 100; for Dayflower, VA plant response rating: Preemergence; for Plant response rating, Dayflower, VA: Postemergence
Source text: as §1, §2, §3

[7] = test system: waterhemp (common waterhemp, Amaranthus rudis); settings: scale 0 to 100; for Waterhemp plant response rating: Preemergence
Source text: as §1, §2, §3

[8] = test system: Brazilian crabgrass (Digitaria horizontalis); settings: scale 0 to 100; for Crabgrass, Brazil plant response rating: Preemergence; for Plant response rating, Crabgrass, Brazil: Postemergence
Source text: as §1, §2, §3

[9] = test system: hairy beggarticks (Bidens pilosa); settings: scale 0 to 100; for Beggarticks plant response rating: Preemergence
Source text: as §1, §2, §3

[10] = test system: wild poinsettia (Euphorbia heterophylla); settings: scale 0 to 100; for Poinsettia, Wild plant response rating: Preemergence; for Plant response rating, Poinsettia, Wild: Postemergence
Source text: as §1, §2, §3

[11] = test system: field bindweed (Convolvulus arvensis); settings: scale 0 to 100; for Field Bindweed plant response rating: Preemergence; for Plant response rating, Field Bindweed: Postemergence
Source text: as §1, §2, §3

CCn1cc(C(=O)c2ccccc2)c(-c2cc(Cl)cc(Cl)c2)n1 [Compound 31, [3-(3,5-dichlorophenyl)-1-ethyl-1H-pyrazol-4-yl]phenylmethanone]
Ryegrass, Italian plant response rating ([1]; 62 g ai/ha): 0 | Ryegrass, Italian plant response rating ([1]; 125 g ai/ha): 0 | Ryegrass, Italian plant response rating ([1]; 250 g ai/ha): 0 | Ryegrass, Italian plant response rating ([1]; 500 g ai/ha): 0 | pest or weed control at 62 g/ha ([2]; Amaranthus palmeri, post-emergence, Postemergence, 62 g ai/ha): 60% | pest or weed control at 125 g/ha ([2]; Amaranthus palmeri, post-emergence, Postemergence, 125 g ai/ha): 75% | Pigweed, Palmer plant response rating ([2]; 62 g ai/ha): 0 | Pigweed, Palmer plant response rating ([2]; 125 g ai/ha): 70 | Pigweed, Palmer plant response rating ([2]; 250 g ai/ha): 98 | Pigweed, Palmer plant response rating ([2]; 500 g ai/ha): 100 | Arrowleaf Sida plant response rating ([3]; 62 g ai/ha, scale 0 to 100): 30 | Arrowleaf Sida plant response rating ([3]; 125 g ai/ha, scale 0 to 100): 80 | Arrowleaf Sida plant response rating ([3]; 250 g ai/ha, scale 0 to 100): 90 | Arrowleaf Sida plant response rating ([3]; 500 g ai/ha, scale 0 to 100): 95 | pest or weed control at 16 g/ha ([3]; Sida rhombifolia, post-emergence, Postemergence, 16 g ai/ha, scale 0 to 100): 55% | pest or weed control at 31 g/ha ([3]; Sida rhombifolia, post-emergence, Postemergence, 31 g ai/ha, scale 0 to 100): 65% | pest or weed control at 62 g/ha ([3]; Sida rhombifolia, post-emergence, Postemergence, 62 g ai/ha, scale 0 to 100): 80% | pest or weed control at 125 g/ha ([3]; Sida rhombifolia, post-emergence, Postemergence, 125 g ai/ha, scale 0 to 100): 90% | Panicum, Fall plant response rating ([4]; 62 g ai/ha): 0 | Panicum, Fall plant response rating ([4]; 125 g ai/ha): 0 | Corn plant response rating ([5]; 62 g ai/ha): 0 | Corn plant response rating ([5]; 125 g ai/ha): 0 | Corn plant response rating ([5]; 250 g ai/ha): 0 | Corn plant response rating ([5]; 500 g ai/ha): 0 | Dayflower, VA plant response rating ([6]; 62 g ai/ha): 0 | Dayflower, VA plant response rating ([6]; 125 g ai/ha): 0 | Dayflower, VA plant response rating ([6]; 250 g ai/ha): 0 | Dayflower, VA plant response rating ([6]; 500 g ai/ha): 0 | pest or weed control at 31 g/ha ([7]; Amaranthus tuberculatus, post-emergence, Postemergence, 31 g ai/ha): 50% | pest or weed control at 125 g/ha ([7]; Amaranthus tuberculatus, post-emergence, Postemergence, 125 g ai/ha): 60% | Waterhemp plant response rating ([7]; 62 g ai/ha): 80 | Waterhemp plant response rating ([7]; 125 g ai/ha): 90 | Waterhemp plant response rating ([7]; 250 g ai/ha): 100 | Waterhemp plant response rating ([7]; 500 g ai/ha): 100 | Crabgrass, Brazil plant response rating ([8]; 62 g ai/ha): 0 | Crabgrass, Brazil plant response rating ([8]; 125 g ai/ha): 0 | Crabgrass, Brazil plant response rating ([8]; 250 g ai/ha): 0 | Crabgrass, Brazil plant response rating ([8]; 500 g ai/ha): 50 | pest or weed control at 16 g/ha ([9]; Bidens pilosa, post-emergence, Postemergence, 16 g ai/ha): 70% | pest or weed control at 31 g/ha ([9]; Bidens pilosa, post-emergence, Postemergence, 31 g ai/ha): 80% | pest or weed control at 62 g/ha ([9]; Bidens pilosa, post-emergence, Postemergence, 62 g ai/ha): 85% | pest or weed control at 125 g/ha ([9]; Bidens pilosa, post-emergence, Postemergence, 125 g ai/ha): 85% | Beggarticks plant response rating ([9]; 62 g ai/ha): 0 | Beggarticks plant response rating ([9]; 125 g ai/ha): 0 | Beggarticks plant response rating ([9]; 250 g ai/ha): 0 | Beggarticks plant response rating ([9]; 500 g ai/ha): 50 | Poinsettia, Wild plant response rating ([10]; 62 g ai/ha): 0 | Poinsettia, Wild plant response rating ([10]; 125 g ai/ha): 0 | Poinsettia, Wild plant response rating ([10]; 250 g ai/ha): 0 | Poinsettia, Wild plant response rating ([10]; 500 g ai/ha): 0 | Field Bindweed plant response rating ([11]; 62 g ai/ha): 0 | Field Bindweed plant response rating ([11]; 125 g ai/ha): 0 | Field Bindweed plant response rating ([11]; 250 g ai/ha): 0 | Field Bindweed plant response rating ([11]; 500 g ai/ha): 0

Fc1cccc(NN=C(c2ccccc2)c2c[nH]nc2-c2cc(Cl)cc(Cl)c2)c1 [Compound 58]
Plant response rating, Ryegrass, Italian ([1]; 31 g ai/ha): 0 | Plant response rating, Ryegrass, Italian ([1]; 62 g ai/ha): 0 | Plant response rating, Ryegrass, Italian ([1]; 125 g ai/ha): 0 | Plant response rating, Ryegrass, Italian ([1]; 250 g ai/ha): 0 | Plant response rating, Ryegrass, Italian ([1]; 500 g ai/ha): 0 | Plant response rating, Pigweed, Palmer ([2]; Postemergence, 31 g ai/ha): 80 | Plant response rating, Pigweed, Palmer ([2]; Postemergence, 62 g ai/ha): 80 | Plant response rating, Pigweed, Palmer ([2]; Postemergence, 125 g ai/ha): 95 | Plant response rating, Pigweed, Palmer ([2]; Postemergence, 250 g ai/ha): 95 | Plant response rating, Pigweed, Palmer ([2]; Postemergence, 500 g ai/ha): 100 | Plant response rating, Arrowleaf Sida ([3]; Postemergence, 31 g ai/ha, scale 0 to 100): 50 | Plant response rating, Arrowleaf Sida ([3]; Postemergence, 62 g ai/ha, scale 0 to 100): 50 | Plant response rating, Arrowleaf Sida ([3]; Postemergence, 125 g ai/ha, scale 0 to 100): 60 | Plant response rating, Arrowleaf Sida ([3]; Postemergence, 250 g ai/ha, scale 0 to 100): 75 | Plant response rating, Arrowleaf Sida ([3]; Postemergence, 500 g ai/ha, scale 0 to 100 (0 no effect, 100 complete control)): 80 | Plant response rating, Panicum, Fall ([4]; 31 g ai/ha): 0 | Plant response rating, Panicum, Fall ([4]; 250 g ai/ha): 0 | Plant response rating, Corn ([5]; 31 g ai/ha): 0 | Plant response rating, Corn ([5]; 62 g ai/ha): 0 | Plant response rating, Corn ([5]; 125 g ai/ha): 0 | Plant response rating, Corn ([5]; 250 g ai/ha): 0 | Plant response rating, Corn ([5]; 500 g ai/ha): 0 | Plant response rating, Dayflower, VA ([6]; 31 g ai/ha): 0 | Plant response rating, Dayflower, VA ([6]; 62 g ai/ha): 0 | Plant response rating, Dayflower, VA ([6]; 125 g ai/ha): 0 | Plant response rating, Dayflower, VA ([6]; 250 g ai/ha): 0 | Plant response rating, Dayflower, VA ([6]; 500 g ai/ha): 0 | Plant response rating, Waterhemp ([7]; Postemergence, 31 g ai/ha): 80 | Plant response rating, Waterhemp ([7]; Postemergence, 62 g ai/ha): 90 | Plant response rating, Waterhemp ([7]; Postemergence, 125 g ai/ha): 95 | Plant response rating, Waterhemp ([7]; Postemergence, 250 g ai/ha): 100 | Plant response rating, Waterhemp ([7]; Postemergence, 500 g ai/ha): 100 | Plant response rating, Crabgrass, Brazil ([8]; 31 g ai/ha): 0 | Plant response rating, Crabgrass, Brazil ([8]; 62 g ai/ha): 0 | Plant response rating, Crabgrass, Brazil ([8]; 125 g ai/ha): 0 | Plant response rating, Crabgrass, Brazil ([8]; 250 g ai/ha): 0 | Plant response rating, Crabgrass, Brazil ([8]; 500 g ai/ha): 10 | Plant response rating, Beggarticks ([9]; Postemergence, 31 g ai/ha): 70 | Plant response rating, Beggarticks ([9]; Postemergence, 62 g ai/ha): 80 | Plant response rating, Beggarticks ([9]; Postemergence, 125 g ai/ha): 80 | Plant response rating, Beggarticks ([9]; Postemergence, 250 g ai/ha): 95 | Plant response rating, Beggarticks ([9]; Postemergence, 500 g ai/ha): 100 | Plant response rating, Poinsettia, Wild ([10]; 31 g ai/ha): 0 | Plant response rating, Poinsettia, Wild ([10]; 62 g ai/ha): 0 | Plant response rating, Poinsettia, Wild ([10]; 125 g ai/ha): 0 | Plant response rating, Poinsettia, Wild ([10]; 250 g ai/ha): 0 | Plant response rating, Poinsettia, Wild ([10]; 500 g ai/ha): 0 | Plant response rating, Field Bindweed ([11]; 31 g ai/ha): 0 | Plant response rating, Field Bindweed ([11]; 62 g ai/ha): 0 | Plant response rating, Field Bindweed ([11]; 125 g ai/ha): 0 | Plant response rating, Field Bindweed ([11]; 250 g ai/ha): 0 | Plant response rating, Field Bindweed ([11]; 500 g ai/ha): 10
